From patent US20090054403A1, “Treatment of Post-Traumatic Stress Disorder” (priority 2007, published 2009) come the findings set out here.

Each structure is given as a SMILES string. Where only a bound is given, the exact number is not on record here.

In experiment [1] the test system is mean arterial pressure and heart rate. As to the kind of experiment: Hemodynamic study in conscious, restrained SHR. The format is in vivo, spontaneously hypertensive rats (SHR). As to the method:
FIG. 13: Effects of orally administered 2a on mean arterial pressure in conscious, restrained spontaneously hypertensive rats (SHR). SHR were lightly anesthetized with ether and instrumented for measurement of arterial pressure and drug administration. The animals were placed in restrainers and allowed to recover for 30-40 minutes. […] All data are expressed as mean±standard error of mean. n=6-8 per group. […] IR spectra were recorded on a Nicolet SPC FT-IR spectrometer. UV spectra were recorded on a Varian Cary 3 UV-Visible spectrometer, Leeman Labs Inc. Optical rotations were measured in a Perkin-Elmer Model 141 polarimeter. […] Hemodynamic study in SHR. Male SHR (15-16 week old) were used in the study. The animals were lightly anesthetized with ether and the left femoral artery and vein were catheterized for measurement of blood pressure and drug administration, respectively. The animals were placed in restrainers and allowed to recover for 30-40 min. […] The animals were then anesthetized with pentobarbital, placed on a heating pad (37° C.) and ventilated with a Harvard rodent ventilator. After administration of atropine (1 mg/kg, iv) and tubocurarine (1 mg/kg, iv), the animals were pithed through the orbit of the eye with a stainless steel rod. The […] rod was stimulated electrically with 1 ms pulses of 80V at different frequencies (0.15, 0.45, 1.5, 5, 15 Hz) to obtain frequency-pressor response curves.

In another experiment the test system is plasma NE, DA and EPI. Nature of the experiment: Plasma catecholamines in beagle dogs, 2 mg/kg b.i.d. for 14.5 days. It is filed as in vivo. As to the method: A separate study was conducted in dogs to determine the effects of chronic administration of 2a on the plasma DA/NE ratio. Animals were randomized to receive, orally, either placebo (empty capsule) or 2a (2 mg/kg, b.i.d) for 14.5 days. Daily blood samples were drawn, 6 h after the first dose, for the measurement of plasma concentrations of DA and NE. The samples were collected in tubes containing heparin and glutathione, centrifuged at […] and stored at −70° C. until analysis.
Male Beagle dogs (Marshall farms, North Rose, N.Y.) weighing between 9-16 kg were used in the study. The animals were allowed water ad libitum and given food once daily at ˜10.00 AM. Animals were randomly assigned to one of the following treatment groups (n=8/group): placebo (empty capsule), or nepicastat at 2 mg/kg b.i.d (4 mg/kg/day). Each animal received 2 doses daily, morning and afternoon (8-10 hours apart). Daily blood samples (10 ml) were drawn 6 h after the AM dose for measurement of plasma levels of nepicastat and catecholamines. The blood was collected in tubes containing heparin and glutathione and centrifuged at −4° C. within 1 h of collection. The plasma was separated and divided into two samples, one for the measurement of plasma catecholamines and the other for analysis of nepicastat.
Plasma NE, DA and EPI were anaylysed by HPLC using electrochemical detection. Plasma concentration of nepicastat was determined by HPLC using electrochemical detection.
The BQL (below quantitation limit) in the DA concentration of dog 1 at day 10 was set to 0; ln (0) was set to missing. The analysis was performed using a mixed model (using PROC MIXED) with the day and treatment categorical variables being fixed and the dog within treatment being a random factor. For the fixed effects, the interaction between the day and the treatment was included, since the difference between the drug and placebo groups varies from day to day. Contrasts were calculated using the CONTRAST statement, which correctly takes into account the error terms for each particular contrast. In particular, the contrasts comparing the […] uses the dog mean square for its error term, while the comparisons used to establish steady state are all within dog comparisons, and require the error mean square.
The time period of steady state was calculated using the Helmert transformation (cf. SAS PROC GLM manual). These transformations compare each treatment mean with the average of the treatment means of the time points following. The steady state period is defined to start at the first time point following the maximum time at which the Helmert contrast is statistically significant. However, since this method can fail to detect a smoothly changing process, as appears might be the case here, the slope of the analyte concentration during the steady state period also was calculated. The slope during the steady state period was calculated for each dog individually, yielding one slope per animal. Univariate statistics on the slopes were then calculated, with Normal theory confidence intervals built on the mean slope, and the hypothesis of slope equalling zero was tested, and its Normal theory p-value was calculated. This slope analysis was used as the basis for determining whether the steady state period was a period of changing concentration.

In the next experiment the test system is locomotor activity. As to the kind of experiment: Infrared activity monitoring (IRAM) in MPTP-lesioned monkeys. The format is in vivo, squirrel monkeys (Saimiri sciureus). As to the method: Drug nepicastat or water (as placebo) was administered for 12 days following a minimum 2 day washout after L-Dopa dosing. Drug was administered twice daily at 10 am and 2 pm by oral gavage. Behavior was rated by IRAM and CRS. The CRS was conducted in the morning, 60 to 90 minutes after the 10 am dose of nepicastat on the last 5 days of drug treatment. Raters (one to three individuals) were blinded to the different treatment groups. IRAM assessments were preformed for 90 minutes immediately following drug administration at 2 pm on the last 5 days of drug treatment.
IRAM Locomotor activity was monitored every 10 minutes for a minimum of 90 minutes following each drug level. A higher rating is considered a faster (less parkinsonian) animal.
Statistical analysis consisted of descriptive statistics and graphing the mean of each 10 minutes data blocks of placebo and experimental drug at 1, 4, and 10 mg/kg. The graph was then examined to detect any trends. Further statistical analysis was not performed since no difference was determined from graphical analysis.

Consider `Cl.NCc1c[nH]c(=S)n1[C@H]1CCc2c(F)cc(F)cc2C1` [nepicastat, (S)-5-Aminomethyl-1-(5,7-difluoro-1,2,3,4-tetrahydronaphth-2-yl)-2,3-dihydro-2-thioxo-1H-imidazole hydrochloride], for which, in experiment [1] (10 mg/kg oral), the “decrease in heart rate” value is on record as 9.8%, the “maximal decrease in mean blood pressure” value came out at 53±4 mmHg and the “reduction in mean blood pressure relative to vehicle control” value is given as 33%. For the same compound, in experiment [1] (10 mg/kg, 4 hours after dosing), the decrease in pressure is given as −46 mmHg. In addition, the “decrease in heart rate” value in experiment [1] (30 mg/kg oral) was 10.5%. The “duration of antihypertensive effects” value in experiment [1] (acute oral administration) is reported as over 4 h. The “time to plateau of antihypertensive response” value in experiment [1] (oral dosing) was 3 to 4 h. For the same compound, in the experiment on plasma NE, DA and EPI (2 mg/kg b.i.d.), the “day of peak decrease in plasma EPI” value was found to be 8 days, the “day of peak decrease in plasma NE” value turned out to be 6 days, the “day of peak increase in plasma DA” value is 7 days and the “day of peak increase in plasma DA/NE ratio” value turned out to be 6 days. Further, in the experiment on plasma NE, DA and EPI (2 mg/kg b.i.d.), the “decrease in plasma EPI vs placebo” value stood at 1.91 fold, the “decrease in plasma NE vs placebo” value is 2.1 fold, the “increase in plasma DA vs placebo” value worked out at 7.5 fold and the “increase in plasma DA/NE ratio vs placebo” value is recorded as 13.6 fold. Also, in the experiment with plasma NE, DA and EPI (2 mg/kg b.i.d.), the “time to steady-state of effect on plasma DA” value is about 8 days post-dose, the “time to steady-state of effect on plasma EPI” value was about 6 days post-dose and the “time to steady-state of effect on plasma NE” value is “approximately 4 days post-dose”. The “peak reduction in plasma concentration of noradrenaline” value in the experiment on plasma NE, DA and EPI (2 mg/kg b.i.d. po, day-6 of dosing) is given as 52%. In addition, the “peak increase in plasma concentration of dopamine” value in the experiment on plasma NE, DA and EPI (2 mg/kg b.i.d. po, day-7 of dosing) amounted to 646%. Moreover, the “time to peak effect on plasma DA/NE ratio” value in the experiment with plasma NE, DA and EPI (2 mg/kg b.i.d., 14.5 day treatment) was 6 to 7 days. In addition, in the experiment on locomotor activity (1 mg/kg/day), the “activity monitoring compared to placebo” value was “slower than placebo treatment”. In addition, the “activity monitoring compared to placebo” value in the experiment with locomotor activity (4 and 10 mg/kg/day, 10 to 90 minutes post-dosing) is given as “no difference”.
